From patent publication US5372944A, “Method for conversion of halogenated hydrocarbons to halohydrins” (The Dow Chemical Company, priority 1993, dated 1994)

Tests used:
TDTM-003 = assay: Utilization of carbon containing compounds for growth in liquid culture, TDTM-003; format: cell-based, Rhodococcus species; conditions: strain TDTM-003, liquid culture
[1] = test system: dehalogenase in cell free extracts of Rhodococcus Rhodochrous, TDTM-003; assay: Primary screen of dehalogenase activity in cell free extracts of TDTM-003; format: biochemical
Protocol: Following overnight growth, 50 μl of 1-chlorobutane was added to induce the dehalogenase. After 24 hours induction, cells were harvested by centrifugation, resuspended in cold 10mM Tris sulfate/1 mM disodium EDTA, pH=7.5, and disrupted by sonication. Cell debris was removed by centrifugation at 10,000 rpm for 30 minutes, cell free extracts dialyzed overnight against the same buffer, and assayed without dilution for dehalogenase activity.
Free chloride or bromide was assayed qualitatively using a chloride electrode (Orion), or quantitatively using the colorimetric method (430 nm) described by J. G. Bergmann, et al., Anal. Chem., 29:241-243 (1957).
(§1) Hydrolytic dehalogenase enzyme activity was evaluated by adding an appropriate amount of cell free extract or enzyme preparation to 5.0 mL of 100 mM glycine buffer, pH=9.0 in a 7 mL glass vial. The halogenated substrate (5.0 μl) and a small stir bar were added, and the vial capped. Reaction was initiated by transfer to a 30° C. water bath equipped with a magnetic stirrer. Periodically 1.0 mL samples were removed and assayed for free halide. Rates were determined after correcting for non-enzymatic hydrolysis with an appropriate blank. A standard curve was prepared using sodium chloride.
Preliminary studies were performed on cell free extracts of TDTM-003 to evaluate the enzyme substrate selectivity, and the results of this study are shown in Table 2.

[2] = test system: double mutants lacking both ADH and halohydrin dehalogenase activity; assay: Whole cell conversion of DCP, DCB and TCP by double mutants: kinetics, selectivity, enantioselectivity; format: cell-based, Rhodococcus species; conditions: double mutants grown on succinate, induced with 1-chlorobutane
Protocol: To evaluate kinetics and selectivity of various mutants with respect to conversion of the target halocarbons, 1,2-dichloropropane (DCP), 1,2-dichloro-butane (DCB) and 1,2,3-trichloropropane (TCP) cultures were first inoculated from slants into 25 mL nutrient media in a 125 mL flask and grown overnight. Five mL were inoculated into 50 mL of MM1X4P containing 5 g/L disodium succinate in a 250 mL flask. Following 4 hours of growth and again at 8 hours, 10 μl of 1-chlorobutane was added for induction of the dehalogenase. Following 24 hours growth, cells were harvested by centrifugation and resuspended into 50 mL of fresh sterile MM1X4P and transferred to a sterile 250 mL shake flask equipped with a bulb feeder as described by Gibson, et al., supra. DCP, DCB, and TCP were added to bulb feeders and reaction progress monitored by gas chromatography (GC). Throughout the protocol, volumes were modified as needed to provide higher concentrations of cells and/or to provide identical batches of induced cells for comparative studies.
(§2) For gas chromatography (GC) analysis of halogenated metabolites, cultures were centrifuged briefly to remove cells, saturated with sodium sulfate, and an equivalent volume of methylene chloride added. The suspension was vortexed vigorously, centrifuged to break the emulsion and the methylene chloride phase removed.
(§3) Analysis of all halocarbon substrates and products from culture broths was done by GC using a Hewlett Packard 5710 equipped with a 7671A Autoinjector with the following protocol:
Analysis for optical activity of microbially produced 2,3-dichloro-1-propanol was determined independently using two methods. […] Enantiomeric composition of DCP, DCB, and respective halohydrins can also be monitored using a derivatized cyclodexdrin gas chromatography column (CHIRALDEX™ type B-TA Column, Advanced Separation Technologies, Inc.). Enantiomeric excess was determined by a comparison of peak areas.
The double mutants were evaluated for conversion of DCP, DCB, and TCP following growth on succinate in the presence of 1-chlorobutane as an inducer of the dehalogenase. […]

[3] = target: partially purified TDTM-003 dehalogenase (Rhodococcus sp. TDTM0003, UniProt P59336); assay: Substrate profile of partially purified TDTM-003 dehalogenase; format: biochemical, Rhodococcus species TDTM-003; conditions: corrected for non-enzymatic hydrolysis
Protocol: as §1
Frozen pellets from 2 liters of culture were thawed into 150 mL of 10 mM Tris sulfate buffer, pH=7.5 containing 1 mM disodium EDTA. This buffer was used throughout the entire purification. The suspension was sonicated for approximately 1 hour with ice cooling using a Microson Ultrasonic Cell Disrupter and centrifuged at 10,000 rpm for 15 minutes to remove cell debris. Supernatant was removed and the sonication/centrifugation repeated with fresh buffer to increase enzyme yield. Overall sonication efficiency was monitored by absorbence at 280 nm. Cell free extracts were combined and brought slowly to 30 percent saturation with solid ammonium sulfate. The suspension was centrifuged at 10,000 rpm for 30 minutes and the pellet discarded. The supernatant was brought to 70 percent saturation with solid ammonium sulfate and centrifugation repeated. Supernatant was discarded and the pellet taken up in a small volume of buffer and dialyzed overnight against 1 liter of the same. The preparation was applied to a 1.5×15cm column of DEAE-Sephadex equilibrated with the same buffer elution carried out with a 1 liter gradient from 0 to 400 mM ammonium sulfate. Fractions of about 7-8 mLs were collected. The active fractions were pooled and brought to 90 percent saturation with ammonium sulfate. The pellet was taken up in a minimal amount of buffer, ultrafiltered to 2.5 mL using 10,000 MWCO Novacell Ultrafiltration cell, and applied to a 1.5×90 cm Sephadex G-100 column. Elution was by gravity at 90 cm and fractions of 7-8 mLs were collected. Active fractions were poled, brought to 30 percent saturation with ammonium sulfate, and applied to a 10 ml column of Butyl-agarose equilibrated in the same. Elution was performed with a 500 mL gradient from 30 percent-0 percent ammonium sulfate. Active fractions were pooled, dialyzed and used for substrate selectivity studies.
To evaluate the substrate selectivity of haloalkane dehalogenase from isolated Rhodococcus species, an enzyme preparation from the strain designated TDTM-003 was purified by the procedure described under General Experimental. This preparation provided a dehalogenase which was approximately 50 percent pure as estimated by SDS-PAGE and was free of interfering halohydrin dehalogenase activity.
The activity of this partially purified TDTM-003 dehalogenase preparation was evaluated against various chlorinated and brominated substrates. Each enzymatic rate was corrected for non-enzymatic hydroloysis.

TDTM-003-60-2-11 = assay: Dehalogenation by double mutant strain TDTM-003-60-2-11 in shake flask with bulb feeder; format: cell-based, Rhodococcus sp.; conditions: 28° C., 150 rpm, substrate from bulb feeder
Source text: as §2, §3
Dehalogenation of 1,2-dichloropropane by the double mutant strain of Rhodococcus sp., designated TDTM-003-60-2-11 was assayed in the following manner: 5 mL of an overnight culture (16 hours) were used as inoculum for 50 mL MM1X4P containing 5 g/L disodium succinate in a 250 mL flask. At 4 and 8 hours growth, 10 μL of 1-chlorobutane was added to induce the dehalogenase enzyme. Following 24 hours of growth, cells were harvested by centrifugation, resuspended into 50 mL of fresh MM1X4P, and transferred to a sterile 250 mL shake flask equipped with a bulb feeder. To the bulb feeder was added 1,2-dichloropropane and incubation continued at 28° C. and 150 rpm. […] The production of halohydrin products was monitored by gas chromatography. 1 -Chloro-2-propanol and 2-chloro-1-propanol accumulate linearly in the culture broth to 74 parts-per-million (ppm) (w/v) and 20 ppm (w/v) respectively after 120 hours. The overall rate of halohydrin production is 0.60 mg/g dry cells/hr.
The procedure described in Example 6 was followed except 1,2-dichlorobutanereplaced 1-chlorobutane in the bulb feeder.
The procedure described in Example 6 was followed except 1,2,3-trichloropropane replaced 1-chlorobutane in the bulb feeder.

partially purified TDTM-003 dehalogenase, sequence (P59336 whole entry): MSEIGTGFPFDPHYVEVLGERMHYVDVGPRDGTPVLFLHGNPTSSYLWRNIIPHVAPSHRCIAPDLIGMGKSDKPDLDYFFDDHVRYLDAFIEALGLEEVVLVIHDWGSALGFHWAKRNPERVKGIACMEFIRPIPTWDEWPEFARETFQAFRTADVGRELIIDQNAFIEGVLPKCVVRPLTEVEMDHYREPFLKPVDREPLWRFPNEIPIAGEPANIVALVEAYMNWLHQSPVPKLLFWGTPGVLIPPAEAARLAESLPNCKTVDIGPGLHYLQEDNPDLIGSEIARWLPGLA

In the case of `CC(Cl)CCl` (centres unmarked) [1,2-dichloropropane], the “utilization as a sole source of carbon” value (TDTM-003) was “does not utilize”, the “Relative Rate of Chloride Release, 1-chlorobutane = 100” value [1] was 4.2 and the “in vivo rates of conversion” value [2] was 0.30 mg product/g dry cells/hr. The “Relative Rate of Halogen Release, 1-Chlorobutane = 100” value [3] was 5.800 and the “overall rate of halohydrin production” value (TDTM-003-60-2-11) was 0.60 mg/g dry cells/hr.
